#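 A five-concentration, 48-hour dose response in 96-well plates underlies each endpoint, interpolated linearly between surrounding concentrations. GI50 is the concentration that inhibits growth by half. The concentration for full growth arrest is given as TGI.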
# Assays:
# Test in all cases: NCI tumour cell line growth inhibition, 48 h
# 786-0 renal = system: 786-0 renal
# A498 renal = system: A498 renal
# A549 NSCLC = system: A549 NSCLC
# ACHN renal = system: ACHN renal
# BT-549 breast = system: BT-549 breast
# CAKI-1 renal = system: CAKI-1 renal
# CCRF-CEM leukemia = system: CCRF-CEM leukemia
# COLO 205 colon = system: COLO 205 colon
# DU-145 prostate = system: DU-145 prostate
# EKVX NSCLC = system: EKVX NSCLC
# HCC-2998 colon = system: HCC-2998 colon
# HCT-116 colon = system: HCT-116 colon
# HCT-15 colon = system: HCT-15 colon
# HL-60(TB) leukemia = system: HL-60(TB) leukemia
# HOP-62 NSCLC = system: HOP-62 NSCLC
# HOP-92 NSCLC = system: HOP-92 NSCLC
# HS 578T breast = system: HS 578T breast
# HT29 colon = system: HT29 colon
# IGROV1 ovarian = system: IGROV1 ovarian
# K-562 leukemia = system: K-562 leukemia
# KM12 colon = system: KM12 colon
# LOX IMVI melanoma = system: LOX IMVI melanoma
# M14 melanoma = system: M14 melanoma
# MALME-3M melanoma = system: MALME-3M melanoma
# MCF7 breast = system: MCF7 breast
# MDA-MB-231 breast = system: MDA-MB-231 breast
# MDA-MB-435 = system: MDA-MB-435
# MDA-N = system: MDA-N
# MOLT-4 leukemia = system: MOLT-4 leukemia
# NCI-H226 lung = system: NCI-H226 lung
# NCI-H23 lung = system: NCI-H23 lung
# NCI-H460 lung = system: NCI-H460 lung
# NCI-H522 lung = system: NCI-H522 lung
# NCI/ADR-RES ovarian = system: NCI/ADR-RES ovarian
# OVCAR-3 ovarian = system: OVCAR-3 ovarian
# OVCAR-4 ovarian = system: OVCAR-4 ovarian
# OVCAR-5 ovarian = system: OVCAR-5 ovarian
# OVCAR-8 ovarian = system: OVCAR-8 ovarian
# PC-3 prostate = system: PC-3 prostate
# RPMI-8226 leukemia = system: RPMI-8226 leukemia
# RXF 393 renal = system: RXF 393 renal
# SF-268 CNS = system: SF-268 CNS
# SF-295 CNS = system: SF-295 CNS
# SF-539 CNS = system: SF-539 CNS
# SK-MEL-2 melanoma = system: SK-MEL-2 melanoma
# SK-MEL-28 melanoma = system: SK-MEL-28 melanoma
# SK-MEL-5 melanoma = system: SK-MEL-5 melanoma
# SK-OV-3 ovarian = system: SK-OV-3 ovarian
# SN12C renal = system: SN12C renal
# SNB-19 CNS = system: SNB-19 CNS
# SNB-75 CNS = system: SNB-75 CNS
# SR leukemia = system: SR leukemia
# SW-620 colon = system: SW-620 colon
# T-47D breast = system: T-47D breast
# TK-10 renal = system: TK-10 renal
# U251 CNS = system: U251 CNS
# UACC-257 melanoma = system: UACC-257 melanoma
# UACC-62 melanoma = system: UACC-62 melanoma
# UO-31 renal = system: UO-31 renal
smiles,measurement,setting,value
O=C1C(=C(I)I)c2ccccc2-c2ccccc21,TGI,786-0 renal,4.33 µM
same,TGI,A498 renal,30.6 µM
same,TGI,A549 NSCLC,34.7 µM
same,TGI,ACHN renal,5.59 µM
same,TGI,BT-549 breast,15.5 µM
same,TGI,CAKI-1 renal,7.12 µM
same,TGI,CCRF-CEM leukemia,2.48 µM
same,TGI,COLO 205 colon,3.66 µM
same,TGI,DU-145 prostate,11.2 µM
same,TGI,EKVX NSCLC,9.45 µM
same,TGI,HCC-2998 colon,7.54 µM
same,TGI,HCT-116 colon,6.55 µM
same,TGI,HCT-15 colon,8.51 µM
same,TGI,HL-60(TB) leukemia,> 21.3 µM
same,TGI,HOP-62 NSCLC,24.3 µM
same,TGI,HOP-92 NSCLC,5.66 µM
same,TGI,HS 578T breast,19.6 µM
same,TGI,HT29 colon,12.2 µM
same,TGI,IGROV1 ovarian,17.6 µM
same,TGI,K-562 leukemia,> 34.9 µM
same,TGI,KM12 colon,24.6 µM
same,TGI,LOX IMVI melanoma,5.26 µM
same,TGI,M14 melanoma,9.15 µM
same,TGI,MALME-3M melanoma,4.08 µM
same,TGI,MCF7 breast,13.8 µM
same,TGI,MDA-MB-231 breast,4.31 µM
same,TGI,MDA-MB-435,5.58 µM
same,TGI,MDA-N,4.6 µM
same,TGI,MOLT-4 leukemia,6.48 µM
same,TGI,NCI-H226 lung,36.4 µM
same,TGI,NCI-H23 lung,16.3 µM
same,TGI,NCI-H460 lung,33.9 µM
same,TGI,NCI-H522 lung,2.61 µM
same,TGI,NCI/ADR-RES ovarian,12.2 µM
same,TGI,OVCAR-3 ovarian,3.82 µM
same,TGI,OVCAR-4 ovarian,10.9 µM
same,TGI,OVCAR-5 ovarian,17.1 µM
same,TGI,OVCAR-8 ovarian,7.72 µM
same,TGI,PC-3 prostate,13.5 µM
same,TGI,RPMI-8226 leukemia,3.95 µM
same,TGI,RXF 393 renal,3.22 µM
same,TGI,SF-268 CNS,20.4 µM
same,TGI,SF-295 CNS,31.8 µM
same,TGI,SF-539 CNS,3.61 µM
same,TGI,SK-MEL-2 melanoma,19.7 µM
same,TGI,SK-MEL-28 melanoma,7.94 µM
same,TGI,SK-MEL-5 melanoma,19.7 µM
same,TGI,SK-OV-3 ovarian,28 µM
same,TGI,SN12C renal,4.31 µM
same,TGI,SNB-19 CNS,27.5 µM
same,TGI,SNB-75 CNS,12.8 µM
same,TGI,SR leukemia,10.2 µM
same,TGI,SW-620 colon,8.13 µM
same,TGI,T-47D breast,> 100 µM
same,TGI,TK-10 renal,3.86 µM
same,TGI,U251 CNS,17.6 µM
same,TGI,UACC-257 melanoma,5.04 µM
same,TGI,UACC-62 melanoma,10.7 µM
same,TGI,UO-31 renal,4.7 µM
CCOC(=O)/C=C(\C(=O)OCC)n1ccc(=O)n(CC(=O)OCC)c1=O,TGI,786-0 renal,4.1 µM
same,TGI,A498 renal,31.7 µM
same,TGI,A549 NSCLC,32.3 µM
same,TGI,ACHN renal,3.29 µM
same,TGI,BT-549 breast,29.1 µM
same,TGI,CAKI-1 renal,1.68 µM
same,TGI,CCRF-CEM leukemia,3.29 µM
same,TGI,COLO 205 colon,3.16 µM
same,TGI,DU-145 prostate,31.1 µM
same,TGI,EKVX NSCLC,35.5 µM
same,TGI,HCC-2998 colon,32.2 µM
same,TGI,HCT-116 colon,3.44 µM
same,TGI,HCT-15 colon,4.4 µM
same,TGI,HL-60(TB) leukemia,1.22 µM
same,TGI,HOP-62 NSCLC,38.7 µM
same,TGI,HOP-92 NSCLC,3.06 µM
same,TGI,HS 578T breast,53.7 µM
same,TGI,HT29 colon,16.2 µM
same,TGI,IGROV1 ovarian,19.3 µM
same,TGI,K-562 leukemia,4 µM
same,TGI,KM12 colon,30.8 µM
same,TGI,LOX IMVI melanoma,5.23 µM
same,TGI,M14 melanoma,5.48 µM
same,TGI,MALME-3M melanoma,5.41 µM
same,TGI,MCF7 breast,9.73 µM
same,TGI,MDA-MB-231 breast,17.2 µM
same,TGI,MDA-MB-435,16.4 µM
same,TGI,MDA-N,17 µM
same,TGI,MOLT-4 leukemia,4.62 µM
same,TGI,NCI-H226 lung,12.8 µM
same,TGI,NCI-H23 lung,28.1 µM
same,TGI,NCI-H460 lung,32.2 µM
same,TGI,NCI-H522 lung,3.25 µM
same,TGI,NCI/ADR-RES ovarian,60.8 µM
same,TGI,OVCAR-3 ovarian,12.5 µM
same,TGI,OVCAR-4 ovarian,> 31.2 µM
same,TGI,OVCAR-5 ovarian,10.1 µM
same,TGI,OVCAR-8 ovarian,14.3 µM
same,TGI,PC-3 prostate,11.2 µM
same,GI50,RPMI-8226 leukemia,2.81 µM
same,TGI,RPMI-8226 leukemia,7.67 µM
same,TGI,RXF 393 renal,2.97 µM
same,TGI,SF-268 CNS,41.1 µM
same,TGI,SF-295 CNS,34.6 µM
same,TGI,SF-539 CNS,32.3 µM
same,TGI,SK-MEL-2 melanoma,29.1 µM
same,TGI,SK-MEL-28 melanoma,15.7 µM
same,TGI,SK-MEL-5 melanoma,25.8 µM
same,TGI,SK-OV-3 ovarian,32.4 µM
same,TGI,SN12C renal,9.38 µM
same,TGI,SNB-19 CNS,36.7 µM
same,TGI,SNB-75 CNS,24.5 µM
same,TGI,SR leukemia,5.27 µM
same,GI50,SW-620 colon,1.42 µM
same,TGI,SW-620 colon,2.72 µM
same,TGI,T-47D breast,7.39 µM
same,TGI,TK-10 renal,6.04 µM
same,TGI,U251 CNS,19.5 µM
same,TGI,UACC-257 melanoma,24.2 µM
same,TGI,UACC-62 melanoma,19.2 µM
same,TGI,UO-31 renal,17.5 µM
N#Cc1[nH]c(=O)n(-c2cccc3ccccc23)c1N,TGI,786-0 renal,> 10 µM
same,TGI,A498 renal,> 10 µM
same,TGI,A549 NSCLC,> 10 µM
same,TGI,ACHN renal,> 10 µM
same,TGI,BT-549 breast,> 10 µM
same,TGI,CAKI-1 renal,> 10 µM
same,TGI,CCRF-CEM leukemia,> 10 µM
same,TGI,COLO 205 colon,> 10 µM
same,TGI,DU-145 prostate,> 10 µM
same,TGI,EKVX NSCLC,> 10 µM
same,TGI,HCC-2998 colon,> 10 µM
same,TGI,HCT-116 colon,> 10 µM
same,TGI,HCT-15 colon,> 10 µM
same,TGI,HL-60(TB) leukemia,> 10 µM
same,TGI,HOP-62 NSCLC,> 10 µM
same,TGI,HS 578T breast,> 10 µM
same,TGI,HT29 colon,> 10 µM
same,TGI,IGROV1 ovarian,> 10 µM
same,TGI,K-562 leukemia,> 10 µM
same,TGI,KM12 colon,> 10 µM
same,TGI,LOX IMVI melanoma,> 10 µM
same,TGI,M14 melanoma,> 10 µM
same,TGI,MALME-3M melanoma,> 10 µM
same,TGI,MCF7 breast,> 10 µM
same,TGI,MDA-MB-231 breast,> 10 µM
same,TGI,MDA-MB-435,> 10 µM
same,TGI,MDA-N,> 10 µM
same,TGI,MOLT-4 leukemia,> 10 µM
same,TGI,NCI-H23 lung,> 10 µM
same,TGI,NCI-H460 lung,> 10 µM
same,TGI,NCI-H522 lung,> 10 µM
same,TGI,NCI/ADR-RES ovarian,> 10 µM
same,TGI,OVCAR-3 ovarian,> 10 µM
same,TGI,OVCAR-4 ovarian,> 10 µM
same,TGI,OVCAR-5 ovarian,> 10 µM
same,TGI,OVCAR-8 ovarian,> 10 µM
same,TGI,PC-3 prostate,> 10 µM
same,TGI,RPMI-8226 leukemia,> 10 µM
same,TGI,RXF 393 renal,> 10 µM
same,TGI,SF-268 CNS,> 10 µM
same,TGI,SF-295 CNS,> 10 µM
same,TGI,SF-539 CNS,> 10 µM
same,TGI,SK-MEL-2 melanoma,> 10 µM
same,TGI,SK-MEL-28 melanoma,> 10 µM
same,TGI,SK-MEL-5 melanoma,> 10 µM
same,TGI,SK-OV-3 ovarian,> 10 µM
same,TGI,SN12C renal,> 10 µM
same,TGI,SNB-19 CNS,> 10 µM
same,TGI,SR leukemia,> 10 µM
same,TGI,SW-620 colon,> 10 µM
same,TGI,T-47D breast,> 10 µM
same,TGI,TK-10 renal,> 10 µM
same,TGI,U251 CNS,> 10 µM
same,TGI,UACC-257 melanoma,> 10 µM
same,TGI,UACC-62 melanoma,> 10 µM

# Source: PubChem BioAssay (NCI)
